Measured values reported in PubChem BioAssay (NCI).
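48-hour exposure; five concentrations; linearly interpolated endpoints. TGI denotes the concentration required for complete inhibition of growth.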

Legend:
Assay in all cases: inhibition of tumour cell growth, NCI panel, 48 h
HOP-62 NSCLC = test system: HOP-62 NSCLC
SN12C renal = test system: SN12C renal
NCI-H226 lung = test system: NCI-H226 lung
UO-31 renal = test system: UO-31 renal
HOP-92 NSCLC = test system: HOP-92 NSCLC
MALME-3M melanoma = test system: MALME-3M melanoma
M14 melanoma = test system: M14 melanoma
SNB-19 CNS = test system: SNB-19 CNS
TK-10 renal = test system: TK-10 renal
UACC-257 melanoma = test system: UACC-257 melanoma
CCRF-CEM leukemia = test system: CCRF-CEM leukemia
COLO 205 colon = test system: COLO 205 colon
MCF7 breast = test system: MCF7 breast
K-562 leukemia = test system: K-562 leukemia
SF-268 CNS = test system: SF-268 CNS
KM12 colon = test system: KM12 colon
HCT-116 colon = test system: HCT-116 colon
SF-539 CNS = test system: SF-539 CNS
NCI-H23 lung = test system: NCI-H23 lung
HT29 colon = test system: HT29 colon
A549 NSCLC = test system: A549 NSCLC
HCC-2998 colon = test system: HCC-2998 colon
MOLT-4 leukemia = test system: MOLT-4 leukemia
T-47D breast = test system: T-47D breast
IGROV1 ovarian = test system: IGROV1 ovarian
SW-620 colon = test system: SW-620 colon
CAKI-1 renal = test system: CAKI-1 renal
MDA-MB-435 = test system: MDA-MB-435
SK-MEL-28 melanoma = test system: SK-MEL-28 melanoma
UACC-62 melanoma = test system: UACC-62 melanoma
786-0 renal = test system: 786-0 renal
OVCAR-8 ovarian = test system: OVCAR-8 ovarian
SK-OV-3 ovarian = test system: SK-OV-3 ovarian
OVCAR-4 ovarian = test system: OVCAR-4 ovarian
MDA-N = test system: MDA-N
ACHN renal = test system: ACHN renal
NCI-H522 lung = test system: NCI-H522 lung
OVCAR-3 ovarian = test system: OVCAR-3 ovarian
SF-295 CNS = test system: SF-295 CNS
MDA-MB-231 breast = test system: MDA-MB-231 breast
OVCAR-5 ovarian = test system: OVCAR-5 ovarian
NCI-H460 lung = test system: NCI-H460 lung
A498 renal = test system: A498 renal
PC-3 prostate = test system: PC-3 prostate
NCI/ADR-RES ovarian = test system: NCI/ADR-RES ovarian
RXF 393 renal = test system: RXF 393 renal
U251 CNS = test system: U251 CNS
DU-145 prostate = test system: DU-145 prostate
HCT-15 colon = test system: HCT-15 colon
BT-549 breast = test system: BT-549 breast
SR leukemia = test system: SR leukemia
EKVX NSCLC = test system: EKVX NSCLC
SNB-75 CNS = test system: SNB-75 CNS
HL-60(TB) leukemia = test system: HL-60(TB) leukemia
RPMI-8226 leukemia = test system: RPMI-8226 leukemia
SK-MEL-2 melanoma = test system: SK-MEL-2 melanoma
LOX IMVI melanoma = test system: LOX IMVI melanoma
SK-MEL-5 melanoma = test system: SK-MEL-5 melanoma
HS 578T breast = test system: HS 578T breast

SMILES: Cc1ccc2c(n1)NC(=O)C(Cc1ccccc1)(N=[N+]=[N-])C2=O (configuration not stated)
- TGI (HOP-62 NSCLC): > 100 µM
- TGI (SN12C renal): > 100 µM
- TGI (NCI-H226 lung): > 100 µM
- TGI (UO-31 renal): > 100 µM
- TGI (HOP-92 NSCLC): > 100 µM
- TGI (MALME-3M melanoma): > 100 µM
- TGI (M14 melanoma): > 100 µM
- TGI (SNB-19 CNS): > 100 µM
- TGI (TK-10 renal): > 100 µM
- TGI (UACC-257 melanoma): > 100 µM
- TGI (CCRF-CEM leukemia): > 100 µM
- TGI (COLO 205 colon): > 100 µM
- TGI (MCF7 breast): > 100 µM
- TGI (K-562 leukemia): > 100 µM
- TGI (SF-268 CNS): > 100 µM
- TGI (KM12 colon): > 100 µM
- TGI (HCT-116 colon): > 100 µM
- TGI (SF-539 CNS): > 100 µM
- TGI (NCI-H23 lung): > 100 µM
- TGI (HT29 colon): > 100 µM
- TGI (A549 NSCLC): > 100 µM
- TGI (HCC-2998 colon): > 100 µM
- TGI (MOLT-4 leukemia): > 100 µM
- TGI (T-47D breast): > 100 µM
- TGI (IGROV1 ovarian): > 100 µM
- TGI (SW-620 colon): > 100 µM
- TGI (CAKI-1 renal): > 100 µM
- TGI (MDA-MB-435): > 100 µM
- TGI (SK-MEL-28 melanoma): > 100 µM
- TGI (UACC-62 melanoma): > 100 µM
- TGI (786-0 renal): > 100 µM
- TGI (OVCAR-8 ovarian): > 100 µM
- TGI (SK-OV-3 ovarian): > 100 µM
- TGI (OVCAR-4 ovarian): > 100 µM
- TGI (MDA-N): > 100 µM
- TGI (ACHN renal): > 100 µM
- TGI (NCI-H522 lung): > 100 µM
- TGI (OVCAR-3 ovarian): > 100 µM
- TGI (SF-295 CNS): > 100 µM
- TGI (MDA-MB-231 breast): > 100 µM
- TGI (OVCAR-5 ovarian): > 100 µM
- TGI (NCI-H460 lung): > 100 µM
- TGI (A498 renal): > 100 µM
- TGI (PC-3 prostate): > 100 µM
- TGI (NCI/ADR-RES ovarian): > 100 µM
- TGI (RXF 393 renal): > 100 µM
- TGI (U251 CNS): > 100 µM
- TGI (DU-145 prostate): > 100 µM
- TGI (HCT-15 colon): > 100 µM
- TGI (BT-549 breast): > 100 µM
- TGI (SR leukemia): > 100 µM

SMILES: O=C(OCc1ccccc1)c1ccc(NCc2cc(O)ccc2O)cc1
- TGI (EKVX NSCLC): 3.48 µM
- TGI (HOP-62 NSCLC): 20.1 µM
- TGI (SN12C renal): 2.78 µM
- TGI (NCI-H226 lung): 7.69 µM
- TGI (UO-31 renal): 2.61 µM
- TGI (SNB-75 CNS): 3.39 µM
- TGI (HOP-92 NSCLC): 2.23 µM
- TGI (MALME-3M melanoma): 2.98 µM
- TGI (M14 melanoma): 4.02 µM
- TGI (SNB-19 CNS): 10.8 µM
- TGI (TK-10 renal): 3.87 µM
- TGI (UACC-257 melanoma): 3.4 µM
- TGI (CCRF-CEM leukemia): 2.8 µM
- TGI (COLO 205 colon): 2.88 µM
- TGI (MCF7 breast): 7.81 µM
- TGI (K-562 leukemia): 6.98 µM
- TGI (SF-268 CNS): 2.99 µM
- TGI (KM12 colon): 3.62 µM
- TGI (HCT-116 colon): 3.02 µM
- TGI (HL-60(TB) leukemia): 2.56 µM
- TGI (RPMI-8226 leukemia): > 100 µM
- TGI (SK-MEL-2 melanoma): 5.23 µM
- TGI (SF-539 CNS): 2.27 µM
- TGI (NCI-H23 lung): 3.73 µM
- TGI (HT29 colon): 20.3 µM
- TGI (A549 NSCLC): 20.5 µM
- TGI (HCC-2998 colon): 6.12 µM
- TGI (IGROV1 ovarian): 2.49 µM
- TGI (SW-620 colon): 3.93 µM
- TGI (CAKI-1 renal): 1.79 µM
- TGI (MDA-MB-435): 3.9 µM
- TGI (SK-MEL-28 melanoma): 3 µM
- TGI (UACC-62 melanoma): 3.15 µM
- TGI (786-0 renal): 2.67 µM
- TGI (OVCAR-8 ovarian): 2.75 µM
- TGI (SK-OV-3 ovarian): 11.2 µM
- TGI (LOX IMVI melanoma): 3.14 µM
- TGI (OVCAR-4 ovarian): 2.99 µM
- TGI (SK-MEL-5 melanoma): 2.87 µM
- TGI (HS 578T breast): 5.43 µM
- TGI (MDA-N): 4.6 µM
- TGI (ACHN renal): 2.77 µM
- TGI (NCI-H522 lung): 0.883 µM
- TGI (OVCAR-3 ovarian): 2.38 µM
- TGI (SF-295 CNS): 17.1 µM
- TGI (MDA-MB-231 breast): 6.08 µM
- TGI (OVCAR-5 ovarian): 13.9 µM
- TGI (NCI-H460 lung): 18.7 µM
- TGI (A498 renal): 3.21 µM
- TGI (PC-3 prostate): 2.73 µM
- TGI (NCI/ADR-RES ovarian): 4.18 µM
- TGI (RXF 393 renal): 2.4 µM
- TGI (U251 CNS): 2.64 µM
- TGI (DU-145 prostate): 13.5 µM
- TGI (HCT-15 colon): 2.42 µM
- TGI (BT-549 breast): 2.19 µM
